Melting point and IC50 data for 6 compounds are collected here from patent US20040171658A1, “Carbohydrate derivatives” (priority 2001, published 2004).

The target in one series is FXa (Homo sapiens, UniProt P00742). In words: Factor Xa inhibition (FXa-IC50). It is filed as biochemical. The source says: The inhibition of factor Xa by the compounds according to the invention and the measurement of the anticoagulant and antithrombotic activity can be determined by conventional in-vitro or in-vivo methods. A suitable method is described, for example, by J. Hauptmann et al. in Thrombosis and Haemostasis 1990, 63, 220-223.
The inhibition of factor Xa can be measured, for example, by the method of T. Hara et al. in Thromb. Haemostas. 1994, 71, 314-319.

A further series deals with TF/FVIIa (Homo sapiens, UniProt P08709). In words: TF/factor VIIa inhibition (TF/FVIIa-IC50). It is filed as biochemical. From the text: The inhibition of factor VIIa by the compounds according to the invention and the measurement of the anticoagulant and antithrombotic activity can be determined by conventional in-vitro or in-vivo methods. A conventional method for the measurement of the inhibition of factor VIIa is described, for example, by H. F. Ronning et al. in Thrombosis Research 1996, 84, 73-81.

pIC50: −log10 of the molar value. Counter-ions that a name gives are not always drawn.

Sequence of FXa (P00742 235-488 limits assumed): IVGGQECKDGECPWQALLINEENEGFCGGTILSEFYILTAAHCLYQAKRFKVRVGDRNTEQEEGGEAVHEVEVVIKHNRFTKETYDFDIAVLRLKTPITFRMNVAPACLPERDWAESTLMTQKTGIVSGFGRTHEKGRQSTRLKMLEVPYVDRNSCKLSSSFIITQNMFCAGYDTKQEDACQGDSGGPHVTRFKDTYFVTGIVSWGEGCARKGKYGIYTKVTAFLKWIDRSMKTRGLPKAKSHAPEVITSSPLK
Sequence of FXa (P00742 41-179 partner limits assumed): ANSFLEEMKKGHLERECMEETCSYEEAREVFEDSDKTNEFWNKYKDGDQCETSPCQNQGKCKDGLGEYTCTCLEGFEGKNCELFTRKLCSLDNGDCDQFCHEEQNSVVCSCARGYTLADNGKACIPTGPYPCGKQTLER
Sequence of TF/FVIIa (P08709 213-466 limits assumed): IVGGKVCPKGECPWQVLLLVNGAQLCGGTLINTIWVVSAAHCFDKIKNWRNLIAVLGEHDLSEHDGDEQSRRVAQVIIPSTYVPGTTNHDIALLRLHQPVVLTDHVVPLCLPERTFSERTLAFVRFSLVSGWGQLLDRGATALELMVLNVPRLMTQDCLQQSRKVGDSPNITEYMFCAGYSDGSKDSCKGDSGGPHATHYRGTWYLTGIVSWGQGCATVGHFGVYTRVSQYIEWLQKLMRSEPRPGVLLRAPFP
Sequence of TF/FVIIa (P08709 61-212 partner limits assumed): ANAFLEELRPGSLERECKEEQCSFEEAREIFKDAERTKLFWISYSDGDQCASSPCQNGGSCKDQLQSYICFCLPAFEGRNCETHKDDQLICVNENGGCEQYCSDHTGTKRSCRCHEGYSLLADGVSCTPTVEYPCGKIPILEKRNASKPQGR
Sequence of TF/FVIIa (P13726 33-295 partner): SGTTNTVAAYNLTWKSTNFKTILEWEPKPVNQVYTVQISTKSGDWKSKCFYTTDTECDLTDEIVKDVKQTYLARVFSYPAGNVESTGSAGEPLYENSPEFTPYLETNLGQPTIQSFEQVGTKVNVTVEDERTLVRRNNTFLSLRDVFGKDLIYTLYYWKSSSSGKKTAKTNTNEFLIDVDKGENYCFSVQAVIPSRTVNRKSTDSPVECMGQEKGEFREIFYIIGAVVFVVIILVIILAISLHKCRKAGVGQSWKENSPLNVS

`N=C(N)c1cccc(CO[C@H]2CO[C@H]3[C@@H]2OC[C@H]3Oc2cccc(C(=N)N)c2)c1` (as salt: trifluoroacetate) [Compound A1, 2-O-(3′-Amidinobenzyl)-5-O-(3″-amidinophenyl)-1,4:3,6-dianhydro-D-sorbitol]: the melting point turned out to be 155 °C.

On to `N=C(N)c1ccc(O[C@@H]2CO[C@H]3[C@@H]2OC[C@@H]3Oc2cccc(C(=N)N)c2)cc1` [Compound B1, 2-O-(3′-Amidinophenyl)-5-O-(4″-amidinophenyl)-1,4:3,6-dianhydro-D-sorbitol], for which the pIC50 was 6.82 against FXa and 7.00 against TF/FVIIa.

As to `N=C(N)c1ccc(O[C@@H]2CO[C@H]3[C@@H]2OC[C@@H]3OCc2cccc(C(=N)N)c2)cc1` [Compound A2, 2-O-(3′-amidinobenzyl)-5-O-(4″-amidinophenyl)-1,4:3,6-dianhydro-D-sorbitol], the pIC50 against FXa is 5.68; on TF/FVIIa, 5.41.

With `N=C(N)c1ccc(O[C@@H]2CO[C@H]3[C@@H]2OC[C@@H]3Oc2cccc(C(=N)N)c2)cc1` (as salt: trifluoroacetate) [Compound B1, 2-O-(3′-Amidinophenyl)-5-O-(4″-amidinophenyl)-1,4:3,6-dianhydro-D-sorbitol], the melting point is 225 °C (dec.).

For the compound `N=C(N)c1cccc(O[C@H]2CO[C@H]3[C@@H]2OC[C@H]3Oc2cccc(C(=N)N)c2)c1` [Compound B2, 2-O-(3′-amidinophenyl)-5-O-(3″-amidinophenyl)-1,4:3,6-dianhydro-D-sorbitol], the pIC50 at FXa was 5.52; on TF/FVIIa, 5.22.

Consider `N=C(N)c1cccc(CO[C@H]2CO[C@H]3[C@@H]2OC[C@H]3Oc2cccc(C(=N)N)c2)c1` [Compound A1, 2-O-(3′-Amidinobenzyl)-5-O-(3″-amidinophenyl)-1,4:3,6-dianhydro-D-sorbitol], for which the pIC50 against FXa is 5.10.

Broadly, the melting point is the temperature, or range, at which the solid turns liquid. As a reminder, the pIC50 is the negative decadic logarithm of the IC50, by convention in mol/L. Read a high pIC50 as a small IC50.
